This is an account of results in patent publication US20070167527A1, “MEMANTINE FOR THE NORMALIZATION OF VISUAL ACUITY DEFICITS” (priority 2006, published 2007).

One test deals with rabbits. Briefly: Visual acuity by sweep visual evoked potential (swVEP) in conscious rabbits after transient IOP elevation. The class given is in vivo, rabbit. The settings on record: 4.5 months after transient IOP elevation; 2.5 kg rabbits pre-treated with oral dose of 50 mg memantine; compared with 50 mg sugar placebo (reduction in acuity). Here is the method:
This invention is especially useful in the use of memantine to normalize visual acuity deficits from outer retina (photoreceptor/RPE) injury.
(§1) Rabbits were anesthetized with isofluorane, and prepared for unilateral acute retinal ischemia by raising IOP in the OD eye by 120 mm Hg for 45 minutes. To accomplish this, a reservoir with PBS was suspended 65 inches above the eye and connected to a 30 gauge needle inserted through the cornea into the anterior chamber. A drop of topical anesthetic (proparacaine) was placed upon the cornea prior to needle insertion.
swVEP is an electrophysiological technique for assessing visual acuity in young children who can't read the Snellen eye charts. Pattern reversal images of increasing spatial frequency are projected onto the macula while simultaneously recording electrical activity (VEP) from the scalp. Images with lower spatial frequency generate large signals which get smaller as the spatial frequency increases, until signal=noise; this threshold is the visual acuity. […]
Vertical steady-state pattern-reversal sweep stimulus at spatial frequency range of 0.1 to 5 cycles per degree at a temporal frequency of 7.5 Hz were applied to the eye at mean luminance of 600 cd/m2 and contrast of 80%. […] Trials were averaged and the threshold (visual acuity) was determined by software or manual fitting at signal-to-noise ration no less than 2.5. […]

For another test, the system named is retinal cells. Description: Histology (H&E) examination of eyes after transient IOP elevation. In kind it is in vivo, rabbit. The settings on record: compared with the placebo group (patchy loss of predominantly outer retina cells). Here is the method: as §1, with “This invention is especially useful in the use of memantine to normalize visual acuity deficits from outer retina (photoreceptor/RPE) injury. […] Retinal cell degeneration was less in the memantine group compared with the placebo group. Rabbits” for “Rabbits”

For `CC12CC3CC(C)(C1)CC(N)(C3)C2` [memantine], the visual acuity result in the test with rabbits is given as “normal visual acuities”. Besides, the retinal cell degeneration result with retinal cells was “less”.
